Laboratory results as given in patent US20030134901A1, “Lipoxin compounds and their use in treating cell proliferative disorders” (priority 1993, published 2003).
Blank lines part the entries; values can stand above or below the compound they belong to.

Columns and labels:
A549 cells = assay: 15-HETE generation by IL-1β-treated A549 cells; assay type: cell-based, human
Description: FIG. 3 is a graph showing the relative chiralities of 15-HETE triggered by ASA. A549 cells (10^7 cells per flask) were exposed to IL-1β (1 ng/ml) for 24 h, treated with vehicle (0.1% vol/vol ethanol) (□) or ASA (▪) for 20 min and then incubated (30 min, 37° C.) in HBSS containing arachidonic acid (20 μM) and A23187 (5 μM). Products were chromatographed by RP-HPLC (as in FIG. 1B) and the region containing 15-HETE was collected, extracted with chloroform and treated with diazomethane. Chiral analysis was performed with a Bakerbond DNBPG (see Methods for details). Results are representative of two separate experiments showing similar results.
In incubations involving permeabilized A549 cells (prepared by a rapid freeze-thaw cycle), IL-1β-treated (1 ng/ml, 24 h) A549 cells (1.5×10^6 cells/ml) were pretreated for 20 min with either vehicle (0.1% EtOH), ASA (500 (M; used throughout), 5 (M 17-ODYA, an inhibitor of cytochrome P450, (Muerhoff A. S., et al. (1989) Prostaglandin and fatty acid ω and (ω-1)-oxidation in rabbit lung: acetylenic fatty acid mechanism-based inactivators as specific inhibitors. J Biol.Chem. 244: 749-756.), or […] Rev 5901 isomer, a 5-LO inhibitor, subjected to two cycles of rapid freezing in a dry ice-acetone bath and thawing to room temperature (full cycle <20 min), and incubated with arachidonic acid ([…] for 20 min at 37° C. in 4 ml of DPBS^2+. In experiments involving radiolabeled arachidonic acid, incubations were initiated with the addition of [^3H]-arachidonic acid (0.25 (Ci/ml) plus unlabeled arachidonic acid ([…] for 20 min at 37° C.
For time-course experiments involving the generation of 15-HETE from endogenous sources (see FIG. 2B), intact A549 cells were exposed to IL-1β (1 ng/ml) for up to 48 h and then treated with vehicle (containing 0.1% EtOH) or ASA for 20 min followed by addition of ionophore A23187 (5 μM) in 4 ml of HBSS for 30 min at 37° C.
The monohydroxy eicosanoids (i. e. 5-, 12- and 15-HETE) from A549 cells were analyzed using a Ultrasphere-ODS column (5 μm, 4.6 mm×25 cm) (Beckman Instruments, Fullerton, Calif.) was eluted with MeOH/H2O/acetic acid (65:35:0.01; v/v/v) as phase one (t0-20 min), and a linear gradient with MeOH/acetic acid (99.9:0.1, v/v) as phase two (20-45 min) at a flow rate of 1.0 ml/min. The R- and S-enantiomers of 15-HETE were resolved and identified using a chiral HPLC system similar to that reported by Hawkins et al. (1988). […] When indicated, generation of 15-HETE from endogenous sources was monitored by radioimmunoassay (RIA). […]

[1] = test system: A549 cell-PMN costimulation; assay: Eicosanoid formation in A549 cell-PMN coincubations; assay type: cell-based, human; conditions: A549 cells exposed 20 min before addition of PMN
Description: In coincubation experiments, confluent A549 cells were exposed to IL-1β (1 ng/ml, 24 h), washed in HBSS and treated with vehicle alone or ASA for 20 min and arachidonic acid ([…] for 60 seconds at 37° C. Coincubations were performed by adding PMN to A549 cell monolayers followed by costimulation with ionophore A23187 (5 μM) in 4 ml of HBSS for 30 min at 37° C.
For analysis of LXs (including LXs and 15-epi-LXs) from A549 cell-PMN, coincubations were carried out using either a Waters (Bondapak C18 ([…]) column eluted with an isocratic mobile phase MeOH/H2O/acetic acid (60:40:0.01; v/v/v) with a flow rate of 0.6 ml/min or an Altex Ultrasphere ODS column (5 μm, 10 ×25 cm) eluted with MeOH/H2O/acetic acid (65:35:0.01; v/v/v) at a flow of 3 ml/min. Peptidoleukotrienes (LTC4 and LTD4) eluted in the MeOH fractions from Sep-Pak cartridge extractions were resolved with a Beckman Ultrasphere-ODS column eluted with MeOH/H2O/acetic acid (65:35:0.01; v/v/v), pH 5.7, at 1 ml/min. […] The material beneath peaks absorbing at 300 nm were individually collected after RP-HPLC and analyzed by gas chromatography-mass spectrometry (GC-MS) employing a Hewlett-Packard 5890 GC series II equipped with a 5971A mass-selective quadrapole detector as in Clària, J. and Serhan, C. […]

15-PGDH = molecular target: T1, 15-PGDH (Homo sapiens, UniProt P15428); conditions: 15-PGDH of HL-60 cells (Agins et al. 1987); cited from earlier work
T1 construct: 100,000 g supernatants prepared from PMA-treated HL-60 cells converted 15-HETE to 15-oxo-ETE; endogenous in cells; host or cells: HL-60 cells treated with PMA (16 nM, 24-72 h); freeze-thaw lysate, 100,000 g supernatant
T1 sequence (P15428 1-266): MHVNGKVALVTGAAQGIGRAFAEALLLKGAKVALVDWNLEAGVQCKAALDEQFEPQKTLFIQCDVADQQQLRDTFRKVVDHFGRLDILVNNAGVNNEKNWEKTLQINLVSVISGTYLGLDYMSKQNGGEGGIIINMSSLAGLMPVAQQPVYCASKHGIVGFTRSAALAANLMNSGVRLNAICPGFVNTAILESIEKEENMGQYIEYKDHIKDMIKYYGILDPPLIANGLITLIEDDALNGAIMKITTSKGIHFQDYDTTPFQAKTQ

[2] = molecular target: T2, LXA4 specific binding sites of differentiated HL-60 cells (Homo sapiens, UniProt P25090); assay: 3H-LXA4 specific binding to differentiated HL-60 cells; conditions: competition, competitor 300 nM where printed
T2 construct: endogenous in cells; host or cells: HL-60 cells differentiated with DMSO, retinoic acid or PMA; intact cells
T2 sequence (P25090 1-351): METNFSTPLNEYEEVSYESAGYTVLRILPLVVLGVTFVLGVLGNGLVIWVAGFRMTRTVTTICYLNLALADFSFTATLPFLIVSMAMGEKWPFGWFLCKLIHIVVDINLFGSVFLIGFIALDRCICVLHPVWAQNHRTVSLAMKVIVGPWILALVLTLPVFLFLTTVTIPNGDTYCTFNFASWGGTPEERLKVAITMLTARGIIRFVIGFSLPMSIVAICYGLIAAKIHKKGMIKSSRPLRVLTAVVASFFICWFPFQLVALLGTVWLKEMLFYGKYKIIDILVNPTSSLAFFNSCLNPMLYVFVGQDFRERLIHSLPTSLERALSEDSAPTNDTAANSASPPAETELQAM

HUVEC = assay: 3H-LTB4 binding to HUVEC; set-up: species or system human; conditions: 3H-LTB4, n=3
Description: Cell cultures and differentiation. HL-60 cells were seeded in RPMI medium supplemented with 100 U/ml penicillin, 100 μg/ml streptomycin, and 10% fetal calf serum (Hyclone, Logan, Utah), incubated at 37° C. with 5% CO2 atmosphere in 250 ml flasks. Individual flasks containing ˜[…] next received dimethyl sulfoxide (DMSO) (1.12% v/v, 120 h) or retinoic acid (RA) (1 μM, 120 h) or phorbol myristate acetate (PMA) (20 nM, 48 h). Before performing binding assays, cells were washed twice in phosphate buffered saline (PBS), Ca^2+- and Mg^2+-free, enumerated and suspended at 20×10^6 cells/ml in Tris buffer (10 mM), pH 7.4 (Fiore, S. et al.(1992) J. Biol. Chem. 267:16168). Nitro blue tetrazolium reduction was performed to monitor induction of polymorphonuclear phenotype as in (Imaizumi, M. and Breitman, T. R. (1986) Blood 67:1273), and cell adherence was determined for induction of macrophage-like phenotype (Collins, S. J. (1987) Blood 70:1273). […]
Ligand binding. ^3H-LXA4 and ^3H-LTB4 binding was performed essentially as in Fiore, S. et al.(1992) J. Biol. Chem. 267:16168. […] The incubations were rapidly centrifuged (60 sec, 12,000 g) on silicon oil (d=1.028), and cell-associated radioactivity was determined by liquid scintillation counting (Wallac 1409, Pharmacia, Piscataway, N.J.). […]

[3] = pretreatment 20 min, 37° C., chiral HPLC

Structure (SMILES): CC(=O)Oc1ccccc1C(=O)O [ASA, acetylsalicylic acid]
- effect on formation of 15-HETE (A549 cells; permeabilized IL-1β-treated A549 cells, arachidonic acid 20 μM): marked increase
- formation of 15S-HETE (A549 cells; [3]): remained unaltered
- increase in the amounts of 15R-HETE (A549 cells; [3]): 3 fold
- formation of LXs [1]: increase in the formation of LXs
- formation of pLTs (LTC4 plus LTD4) [1]: decrease in pLTs

Structure (SMILES): CCCCC[C@H](O)/C=C/C=C\C/C=C\C/C=C\CCCC(=O)O [15-HETE, 15-hydroxyeicosatetraenoic acid]
- substrate efficiency compared to PGE2 (15-PGDH): 92%

- specific binding to HUVEC (HUVEC): did not specifically bind
Structure (SMILES): CCCCC/C=C\C[C@@H](O)/C=C/C=C/C=C\[C@@H](O)CCCC(=O)O [LTB4, leukotriene B4]
- displacement of 3H-LXA4 specific binding [2]: Neither LXB4, LTB4, nor trihydroxyheptanoic acid (methyl ester) (300 nM) were able to displace
